Test results reported in the supplement of paper PMC10331698.
± gives the standard deviation of the averaged measurements.

Experiments:
Assay in all cases: level (log10 ratio to DMSO vehicle control); higher = higher biomarker level / cell amount than vehicle control
Methotrexate = compound: CN(Cc1cnc2nc(N)nc(N)c2n1)c1ccc(C(=O)N[C@@H](CCC(=O)O)C(=O)O)cc1 [Methotrexate]; conditions: in DMSO
Description: (§1)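 BioMAP Diversity Plus panel of 12 human primary cell co-culture systems (3C, 4H, LPS, SAg, BT, BF4T, BE3C, CASM3C, HDF3CGF, KF3CT, MyoF, Mphg). Compounds were added 1 h before stimulation and left for 24 h (MyoF 48 h; BT 72 h for soluble read-outs or 6 d for IgG). Biomarkers were read by ELISA, cytotoxicity by SRB, PBMC viability and proliferation by Alamar Blue. Each well value was divided by the mean of 8 DMSO control wells on the same plate and log10 transformed; duplicate blinded samples were tested at 4 concentrations.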

[1] = compound: OCCCC(F)(F)C(F)(F)C(F)(F)C(F)(F)C(F)(F)C(F)(F)C(F)(F)C(F)(F)F [3-(Perfluorooctyl)propanol]; conditions: 6700 nM; in DMSO
Description: as §1

[2] = compound: O=C(CC(=O)C(F)(F)C(F)(F)C(F)(F)F)c1cccs1 [(Perfluorobutyryl)-2-thenoylmethane]; conditions: in DMSO
Description: as §1

[3] = compound: FC(F)(F)C(F)(F)C(F)(F)C(F)(F)CCI [1H,1H,2H,2H-Perfluorohexyl iodide]; conditions: in DMSO
Description: as §1

[4] = compound: FC(F)(F)COC(OCC(F)(F)F)OCC(F)(F)F [tris(Trifluoroethoxy)methane]; conditions: in DMSO
Description: as §1

[5] = compound: OCC(F)(F)C(F)(F)C(F)(F)C(F)(F)C(F)(F)C(F)(F)F [6:1 Fluorotelomer alcohol]; conditions: in DMSO
Description: as §1

[6] = compound: O=S(=O)(O)CCC(F)(F)C(F)(F)C(F)(F)C(F)(F)F [4:2 Fluorotelomer sulfonic acid]; conditions: in DMSO
Description: as §1

Test System | level (log10) (Methotrexate; 1500 nM) | level (log10) (Methotrexate; 4400 nM) | level (log10) (Methotrexate; 13000 nM) | level (log10) (Methotrexate; 40000 nM) | level (log10) [1] | level (log10) ([2]; 6700 nM) | level (log10) ([2]; 20000 nM) | level (log10) ([3]; 6700 nM) | level (log10) ([3]; 20000 nM) | level (log10) ([3]; 60000 nM) | level (log10) ([4]; 6700 nM) | level (log10) ([4]; 20000 nM) | level (log10) ([4]; 60000 nM) | level (log10) ([5]; 6700 nM) | level (log10) ([5]; 20000 nM) | level (log10) ([5]; 60000 nM) | level (log10) ([6]; 6700 nM) | level (log10) ([6]; 20000 nM) | level (log10) ([6]; 60000 nM)
BF4T:CCL26/Eotaxin-3 | 0.057 ± 0.0014 | -0.005 ± 0.14 | 0.0465 ± 0.029 | 0.031 ± 0.072 | -0.029 ± 0.017 | -0.181 ± 0.0035 | -0.464 ± 0.018 | -0.032 ± 0.017 | -0.0525 ± 0.036 | -0.098 ± 0.073 | 0.0055 ± 0.025 | -0.011 ± 0.0014 | 0.012 ± 0.0057 | 0.0385 ± 0.026 | 0.0185 ± 0.022 | 0.0445 ± 0.03 | -0.002 ± 0.052 | -0.0065 ± 0.029 | 0.056 ± 0.047
BF4T:MMP-3 | 0.0045 ± 0.025 | -0.0285 ± 0.018 | -0.012 ± 0.031 | 0.015 ± 0.024 | 0.018 ± 0.03 | -0.0475 ± 0.026 | -0.0985 ± 0.032 | 0.018 ± 0.04 | 0.015 ± 0.047 | 0.049 ± 0.078 | 0.014 ± 0.044 | 0.004 ± 0.041 | 0.006 ± 0.042 | -0.012 ± 0.018 | -0.0195 ± 0.0064 | -0.002 ± 0.021 | -0.031 ± 0.013 | -0.0235 ± 0.018 | 0.0295 ± 0.069
3C:CXCL9/MIG | 0.0075 ± 0.0092 | 0.001 ± 0.016 | -0.0015 ± 0.005 | 0.0145 ± 0.0064 | -0.0075 ± 0.0092 | -0.0205 ± 0.012 | -0.0255 ± 0.0021 | 0.0045 ± 0.00071 | -0.0085 ± 0.005 | 0.007 ± 0.0057 | -0.01 ± 0.018 | -0.008 ± 0.0057 | -0.0115 ± 0.0035 | 0.0065 ± 0.0035 | 0.0065 ± 0.0035 | 0.019 | -0.0005 ± 0.005 | 0.005 ± 0.011 | 0.001 ± 0.014
SAg:SRB | -0.002 ± 0.0042 | -0.007 ± 0.0014 | 0.003 ± 0.0071 | -0.0015 ± 0.0021 | -0.009 ± 0.0071 | -0.012 ± 0.013 | -0.0845 ± 0.0021 | 0.0005 ± 0.0064 | -0.0005 ± 0.005 | 0.0035 ± 0.0078 | -0.0155 ± 0.005 | -0.0135 ± 0.0021 | -0.013 ± 0.017 | 0.0065 ± 0.015 | 0 ± 0.0042 | 0.008 ± 0.0085 | -0.0105 ± 0.005 | -0.0085 ± 0.011 | -0.009 ± 0.011
SAg:CD40 | -0.02 ± 0.0042 | -0.0525 ± 0.018 | -0.0055 ± 0.079 | -0.0305 ± 0.088 | -0.029 ± 0.025 | -0.27 ± 0.11 | -0.412 ± 0.093 | 0.019 ± 0.013 | 0.012 ± 0.0014 | -0.0185 ± 0.018 | 0.0005 ± 0.026 | -0.0185 ± 0.011 | -0.0245 ± 0.0064 | -0.02 ± 0.023 | -0.0075 ± 0.0021 | -0.005 ± 0.033 | -0.006 ± 0.0071 | 0.0015 ± 0.019 | -0.0225 ± 0.039
BF4T:PAI-I | -0.002 ± 0.014 | -0.0075 ± 0.0078 | -0.0065 ± 0.0078 | -0.002 ± 0.0071 | -0.016 ± 0.024 | -0.0085 ± 0.0092 | -0.125 ± 0.014 | 0.0075 ± 0.0078 | 0.008 ± 0.018 | 0.01 ± 0.038 | 0.0025 ± 0.023 | -0.012 ± 0.0042 | 0.007 | -0.001 ± 0.0028 | -0.012 | 0.002 ± 0.021 | -0.0055 ± 0.005 | -0.007 ± 0.0071 | -0.0035 ± 0.015
SAg:CD62E/E-Selectin | 0.007 ± 0.011 | -0.0015 ± 0.032 | 0.019 ± 0.016 | -0.0075 ± 0.018 | -0.014 ± 0.0099 | -0.164 ± 0.0092 | -0.113 ± 0.02 | -0.0095 ± 0.005 | -0.014 ± 0.014 | -0.008 ± 0.018 | 0.004 ± 0.034 | -0.022 ± 0.025 | -0.0045 ± 0.026 | 0.0085 ± 0.026 | -0.001 ± 0.0085 | 0 ± 0.025 | -0.016 ± 0.0085 | -0.011 ± 0.0071 | 0.009 ± 0.0071
SAg:Proliferation | -0.085 ± 0.011 | -0.199 ± 0.044 | -0.253 ± 0.016 | -0.263 ± 0.023 | -0.005 ± 0.023 | -0.298 ± 0.019 | -0.585 | -0.0205 ± 0.0078 | -0.043 ± 0.013 | -0.155 ± 0.014 | -0.012 ± 0.0014 | 0.013 ± 0.04 | 0.007 ± 0.013 | -0.0075 ± 0.005 | -0.0455 ± 0.0035 | -0.0325 ± 0.13 | -0.0615 ± 0.015 | 0.009 ± 0.054 | -0.017 ± 0.041
BF4T:tPA | 0.018 ± 0.0071 | -0.0155 ± 0.011 | 0.005 ± 0.014 | 0.0155 ± 0.018 | 0.056 ± 0.016 | -0.122 ± 0.02 | -0.068 ± 0.018 | -0.0025 ± 0.0092 | 0.005 ± 0.0042 | 0.0475 ± 0.053 | 0.0025 ± 0.022 | -0.0105 ± 0.016 | -0.004 ± 0.0014 | -0.0055 ± 0.016 | -0.013 ± 0.021 | 0.0095 ± 0.029 | -0.0295 ± 0.023 | -0.0295 ± 0.03 | 0.0055 ± 0.06
LPS:sPGE2 | 0.011 ± 0.025 | -0.0045 ± 0.057 | -0.0135 ± 0.067 | -0.0235 ± 0.021 | -0.061 ± 0.061 | -0.066 ± 0.052 | 0.0635 ± 0.0064 | -0.004 ± 0.014 | -0.002 ± 0.017 | 0.0245 ± 0.03 | -0.0105 ± 0.022 | -0.0085 ± 0.0035 | 0.0185 ± 0.013 | -0.0055 ± 0.028 | 0.004 ± 0.0099 | 0.005 ± 0.03 | -0.035 ± 0.078 | 0.025 ± 0.064 | 0.026 ± 0.0028
BE3C:CXCL10/IP-10 | 0.003 ± 0.051 | 0.0105 ± 0.032 | 0.0195 ± 0.019 | 0.011 ± 0.038 | -0.009 ± 0.0099 | -0.0615 ± 0.00071 | -0.578 ± 0.018 | 0.008 ± 0.0099 | 0.0015 ± 0.0092 | 0.001 ± 0.021 | -0.001 ± 0.0085 | -0.0035 ± 0.018 | 0.0095 ± 0.0021 | 0.0355 ± 0.005 | 0.028 ± 0.011 | 0.0075 ± 0.025 | -0.0055 ± 0.00071 | -0.006 ± 0.0085 | -0.0035 ± 0.011
LPS:M-CSF | 0.0235 ± 0.005 | 0.0035 ± 0.019 | 0.0235 ± 0.0035 | -0.0065 ± 0.03 | -0.073 ± 0.03 | 0.004 ± 0.085 | -0.046 ± 0.072 | 0.002 ± 0.0042 | 0 ± 0.0099 | -0.0055 ± 0.028 | 0.003 ± 0.0085 | 0.005 ± 0.0042 | -0.0005 ± 0.0092 | 0.009 ± 0.038 | 0.0085 ± 0.05 | 0.0125 ± 0.023 | -0.0265 ± 0.049 | 0.017 ± 0.0071 | 0.0025 ± 0.005
BT:sIL-17A | -0.0735 ± 0.14 | -0.02 ± 0.058 | -0.002 ± 0.11 | -0.197 ± 0.18 | 0.023 ± 0.028 | -0.135 ± 0.17 | -0.524 ± 0.047 | 0.0075 ± 0.12 | 0.028 ± 0.011 | -0.249 ± 0.1 | -0.0445 ± 0.0078 | -0.126 ± 0.15 | 0.079 ± 0.02 | -0.063 ± 0.088 | -0.107 ± 0.11 | -0.475 ± 0.093 | -0.127 ± 0.005 | -0.078 ± 0.2 | -0.116 ± 0.096
SAg:CXCL8/IL-8 | 0.023 ± 0.037 | -0.0215 ± 0.022 | -0.004 ± 0.02 | 0.0195 ± 0.052 | -0.0165 ± 0.028 | -0.169 ± 0.058 | -0.177 ± 0.0085 | 0.012 ± 0.0042 | -0.0035 ± 0.0092 | -0.006 ± 0.058 | 0.002 ± 0.023 | 0.0085 ± 0.0021 | 0.0135 ± 0.00071 | -0.035 ± 0.048 | -0.0425 ± 0.025 | -0.013 ± 0.069 | -0.048 ± 0.093 | -0.007 ± 0.052 | 0.034 ± 0.042
LPS:CD40 | -0.033 ± 0.018 | -0.0475 ± 0.011 | -0.009 ± 0.028 | -0.0155 ± 0.03 | -0.039 ± 0.018 | -0.0095 ± 0.071 | -0.0805 ± 0.083 | 0.0065 ± 0.0021 | -0.019 ± 0.02 | -0.0095 ± 0.025 | -0.0235 ± 0.023 | -0.0275 ± 0.0092 | -0.013 ± 0.027 | 0.053 ± 0.016 | 0.048 ± 0.052 | 0.041 ± 0.0028 | 0.0175 ± 0.079 | 0.0505 ± 0.043 | 0.032 ± 0.071
